{"source": "patent US10751303B2", "about": "“Method for shortening anti-infective therapy duration in subjects with infection” (INSTITUTE FOR CLINICAL PHARMACODYNAMICS, INC., priority 2015, dated 2020)", "assay_type_in_all_cases": "cell-based", "key": {"E. coli JMI 21711R [1]": {"test_system": "E. coli JMI 21711R", "assay": "change in bacterial density in vitro over 24 hours (growth rate)", "excerpt": "Moreover, note the impact of ascorbic acid on the time-course of levofloxacin antimicrobial activity."}, "S. aureus ATCC 29213 [2]": {"test_system": "S. aureus ATCC 29213", "assay": "levofloxacin MIC", "details": "Staphylococcus aureus, ATCC29213"}, "E. coli JMI 21711R [3]": {"test_system": "E. coli JMI 21711R", "assay": "levofloxacin MIC", "details": "Escherichia coli, JMI21711R"}, "S. aureus ATCC 29213 [4]": {"test_system": "S. aureus ATCC 29213", "assay": "10-day hollow-fiber in vitro infection model", "excerpt": "The treatment arms and associated control arms differed only in sodium chloride concentration (0 and 8%) within the growth media. The initial bacterial inoculum in the model was 1×10^8 CFU/mL was selected to approximate that observed in high-density infections, such as pneumonia. Moreover, the 10-day study duration was selected to approximate that typical for pneumonia.\nNote that in the media in which the challenge isolate grew slowly (sodium chloride 8%), the time-until a reduction of bacterial density to 1×10^2 CFU/mL was 10 days. On the other hand, in the media in which the challenge isolate grew rapidly (sodium chloride 0%), the time-until reduction of bacterial density to 1×10^2 CFU/mL was 3 days."}, "E. coli JMI 21711R [5]": {"test_system": "E. coli JMI 21711R", "details": "norepinephrine 500 μM, no levofloxacin", "protocol": "Each treatment arm and its associated control arm differed only in norepinephrine concentration (0, 500 μM) within the growth media."}, "S. aureus ATCC 29213 [6]": {"test_system": "S. aureus ATCC 29213", "assay": "change in bacterial density in vitro over 24 hours (growth rate in Mueller-Hinton II broth)", "details": "S. aureus ATCC 29213, in vitro over 24 hours, starting inoculum 1×10^6 CFU/mL, increasing sodium chloride concentration"}, "S. aureus ATCC 29213 [7]": {"test_system": "S. aureus ATCC 29213", "assay": "24-hour one-compartment dynamic in vitro infection model", "details": "10% sodium chloride, no levofloxacin", "excerpt": "Not previously recognized is the potential to modulate the intrinsic bacterial replication rate in combination with an antimicrobial agent as a means to increase the rate and extent of bactericidal activity. […] Each treatment arm and associated control arm differed only in sodium chloride concentration (0, 8, and 10%) within the growth media. […] Note also that bacterial killing occurred only during bacterial replication."}}, "note": "“Also recorded” adds a separate entry of the source."}
{"smiles": "O=C1O[C@H]([C@@H](O)CO)C(O)=C1O", "note": "[ascorbic acid, Ascorbic acid]", "values": [{"measurement": "bacterial replication rate relative to no treatment control", "setting": "E. coli JMI 21711R [1]; ascorbic acid without levofloxacin", "result": "increases the bacterial replication rate relative to no treatment control"}]}
{"smiles": "C[C@H]1COc2c(N3CCN(C)CC3)c(F)cc3c(=O)c(C(=O)O)cn1c23", "note": "[levofloxacin]", "values": [{"measurement": "MIC", "setting": "S. aureus ATCC 29213 [2]", "result": 0.125, "unit": "µg/mL"}, {"measurement": "MIC", "setting": "E. coli JMI 21711R [3]", "result": 8, "unit": "µg/mL"}, {"measurement": "reduction in time-until a reduction of bacterial density to 1×10^2 CFU/mL", "setting": "S. aureus ATCC 29213 [4]; fast (sodium chloride 0%) versus slow (sodium chloride 8%) growing media", "result": 70, "unit": "%"}, {"measurement": "time-until reduction of bacterial density to 1×10^2 CFU/mL", "setting": "S. aureus ATCC 29213 [4]; sodium chloride 0% (rapid growth), initial inoculum 1×10^8 CFU/mL, levofloxacin AUC:MIC ratio 520", "result": 3, "unit": "days"}, {"measurement": "time-until a reduction of bacterial density to 1×10^2 CFU/mL", "setting": "S. aureus ATCC 29213 [4]; sodium chloride 8% (slow growth), initial inoculum 1×10^8 CFU/mL, levofloxacin AUC:MIC ratio 520", "result": 10, "unit": "days"}]}
{"smiles": "NCC(O)c1ccc(O)c(O)c1", "note": "(stereo not shown) [norepinephrine, Norepinephrine]", "values": [{"measurement": "bacterial replication rate (change in bacterial density)", "setting": "E. coli JMI 21711R [1]; starting inoculum 1×10^6 CFU/mL, increasing norepinephrine concentration", "result": "as norepinephrine concentration increases so too does the bacterial replication rate; also recorded: sped up"}, {"measurement": "growth of control arm relative to no-treatment control arm", "setting": "E. coli JMI 21711R [5]", "result": "grew faster"}]}
{"smiles": "[Cl-].[Na+]", "note": "[sodium chloride]", "values": [{"measurement": "bacterial replication rate (change in bacterial density)", "setting": "S. aureus ATCC 29213 [6]", "result": "as sodium chloride concentration increases, the bacterial replication rate decreases; also recorded: slowed"}, {"measurement": "growth in control arm", "setting": "S. aureus ATCC 29213 [7]", "result": "delayed for four hours"}]}
